From patent publication US8778966B2, “Quinolinone derivatives as PARP and tank inhibitors” (Janssen Pharmaceutica, NV, priority 2007, dated 2014)

Biological target: T1, TANK-2 enzyme (Homo sapiens, UniProt Q9H2K2)
T1 construct: made in house
T1 sequence (Q9H2K2 1-1166): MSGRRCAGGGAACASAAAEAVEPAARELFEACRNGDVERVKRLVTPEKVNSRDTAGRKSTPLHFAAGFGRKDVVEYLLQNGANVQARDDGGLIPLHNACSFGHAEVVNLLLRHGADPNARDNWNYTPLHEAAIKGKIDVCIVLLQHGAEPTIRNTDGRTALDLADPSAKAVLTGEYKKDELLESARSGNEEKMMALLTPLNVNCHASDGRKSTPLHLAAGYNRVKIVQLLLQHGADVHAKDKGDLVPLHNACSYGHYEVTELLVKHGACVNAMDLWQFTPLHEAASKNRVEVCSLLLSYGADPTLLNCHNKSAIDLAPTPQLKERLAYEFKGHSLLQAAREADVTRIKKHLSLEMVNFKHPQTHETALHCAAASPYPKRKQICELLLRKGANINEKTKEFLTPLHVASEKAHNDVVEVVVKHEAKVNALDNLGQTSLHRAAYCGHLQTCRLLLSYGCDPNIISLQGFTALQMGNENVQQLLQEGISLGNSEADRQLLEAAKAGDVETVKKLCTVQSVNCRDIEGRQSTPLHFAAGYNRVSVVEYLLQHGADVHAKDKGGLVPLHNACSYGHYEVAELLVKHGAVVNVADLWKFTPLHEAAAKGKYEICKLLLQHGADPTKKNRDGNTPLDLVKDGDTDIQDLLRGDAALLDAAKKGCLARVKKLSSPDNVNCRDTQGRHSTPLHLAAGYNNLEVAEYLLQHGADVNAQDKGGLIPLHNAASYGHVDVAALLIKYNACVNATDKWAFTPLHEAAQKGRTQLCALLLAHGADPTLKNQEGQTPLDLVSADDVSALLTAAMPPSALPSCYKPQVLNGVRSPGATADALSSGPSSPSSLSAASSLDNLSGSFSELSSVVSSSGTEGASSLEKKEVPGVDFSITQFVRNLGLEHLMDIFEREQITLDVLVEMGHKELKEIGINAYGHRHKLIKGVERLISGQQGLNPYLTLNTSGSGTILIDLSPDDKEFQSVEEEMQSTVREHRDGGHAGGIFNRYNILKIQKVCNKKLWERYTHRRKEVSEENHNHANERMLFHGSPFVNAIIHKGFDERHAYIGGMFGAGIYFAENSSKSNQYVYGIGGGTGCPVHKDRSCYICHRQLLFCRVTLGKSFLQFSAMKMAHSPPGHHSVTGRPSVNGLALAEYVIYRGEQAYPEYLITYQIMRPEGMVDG
Assay: In vitro Scintillation Proximity Assay (SPA) for TANK-2 inhibitory activity
Assay type: biochemical
Conditions: read-out: in vitro SPA assay TANK-2 pIC50 (converted)
Outline: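 Results are pIC50 values, with IC50 interpolated linearly around 50% of blank-subtracted control cpm. They come from a scintillation proximity read of TANK-2 (8 μg/ml) self-modification with [3H]-NAD+/NAD, incubated 120 min at room temperature in pH 7.4 Tris buffer containing MgCl2 and DTT. Compounds were first screened at 10^−5 M.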

| Compound | IC50 [nM] |
| --- | --- |
| CCc1cc2ccc(C(C)(C#N)CCOc3ccccc3C#N)cc2[nH]c1=O (centres unmarked) [Compound 276] | 79.4 |
| CCc1cc2ccc(C(C)(C#N)CCOc3cc(Cl)c(Cl)cc3Cl)cc2[nH]c1=O (centres unmarked) [Compound 277] | 2000 |
| CCc1cc2ccc(C(C)(C#N)CCOc3ccccc3F)cc2[nH]c1=O (centres unmarked) [Compound 278] | 316 |
| CCc1cc2ccc(C(C)(C#N)CCOc3ccc4c(c3)OCO4)cc2[nH]c1=O (centres unmarked) [Compound 279] | 398 |
| CCc1cc2ccc(C(C)(C#N)Cc3cc(OC)cc(OC)c3)cc2[nH]c1=O (centres unmarked) [Compound 332] | 501 |
